Source: ChEMBL document CHEMBL2396621, “Design, synthesis and biological evaluation of 2-mercapto-3-phenethylquinazoline bearing anilide fragments as potential antitumor agents: molecular docking study” (2013)

Assays:
Assay type in all cases: functional
SK-MEL-28 = test: Cytotoxicity against human SK-MEL-28 cells assessed as growth inhibition at 10 uM after 48 hrs by coulter counter analysis; conditions: SK-MEL-28, 48 h, read-out: GI
BT-549 = test: Cytotoxicity against human BT549 cells assessed as growth inhibition at 10 uM after 48 hrs by coulter counter analysis; conditions: BT-549, 48 h, read-out: GI
CAKI-1 = test: Cytotoxicity against human Caki1 cells assessed as growth inhibition at 10 uM after 48 hrs by coulter counter analysis; conditions: CAKI-1, 48 h, read-out: GI
Hs-578T = test: Cytotoxicity against human Hs578T cells assessed as growth inhibition at 10 uM after 48 hrs by coulter counter analysis; conditions: read-out: GI
UACC-62 = test: Cytotoxicity against human UACC62 cells assessed as growth inhibition at 10 uM after 48 hrs by coulter counter analysis; conditions: UACC-62, 48 h, read-out: GI
NCI-H226 = test: Cytotoxicity against human NCI-H226 cells assessed as growth inhibition at 10 uM after 48 hrs by coulter counter analysis; conditions: NCI-H226, 48 h, read-out: GI
NCI-H23 = test: Cytotoxicity against human NCI-H23 cells assessed as growth inhibition at 10 uM after 48 hrs by coulter counter analysis; conditions: NCI-H23, 48 h, read-out: GI
SN12C = test: Cytotoxicity against human SN12C cells assessed as growth inhibition at 10 uM after 48 hrs by coulter counter analysis; conditions: read-out: GI
IGROV-1 = test: Cytotoxicity against human IGROV1 cells assessed as growth inhibition at 10 uM after 48 hrs by coulter counter analysis; conditions: IGROV-1, 48 h, read-out: GI
ACHN = test: Cytotoxicity against human ACHN cells assessed as growth inhibition at 10 uM after 48 hrs by coulter counter analysis; conditions: read-out: GI
NCI-H322M = test: Cytotoxicity against human NCI-H322M cells assessed as growth inhibition at 10 uM after 48 hrs by coulter counter analysis; conditions: read-out: GI
MOLT-4 = test: Cytotoxicity against human MOLT4 cells assessed as growth inhibition at 10 uM after 48 hrs by coulter counter analysis; conditions: MOLT-4, 48 h, read-out: GI
OVCAR-3 = test: Cytotoxicity against human OVCAR3 cells assessed as growth inhibition at 10 uM after 48 hrs by coulter counter analysis; conditions: OVCAR-3, 48 h, read-out: GI
NCI-H522 = test: Cytotoxicity against human NCI-H522 cells assessed as growth inhibition at 10 uM after 48 hrs by coulter counter analysis; conditions: NCI-H522, 48 h, read-out: GI
MDA-MB-231 = test: Cytotoxicity against human MDA-MB-231 cells assessed as growth inhibition at 10 uM after 48 hrs by coulter counter analysis; conditions: MDA-MB-231, 48 h, read-out: GI
DU-145 = test: Cytotoxicity against human DU145 cells assessed as growth inhibition at 10 uM after 48 hrs by coulter counter analysis; conditions: DU-145, 48 h, read-out: GI
HL-60(TB) = test: Cytotoxicity against human HL-60(TB) cells assessed as growth inhibition at 10 uM after 48 hrs by coulter counter analysis; conditions: HL-60, 48 h, read-out: GI

Row | Compound | inhibition of growth at 10 µM (SK-MEL-28) [%] | inhibition of growth at 10 µM (BT-549) [%] | inhibition of growth at 10 µM (CAKI-1) [%] | inhibition of growth at 10 µM (Hs-578T) [%] | inhibition of growth at 10 µM (UACC-62) [%] | inhibition of growth at 10 µM (NCI-H226) [%] | inhibition of growth at 10 µM (NCI-H23) [%] | inhibition of growth at 10 µM (SN12C) [%] | inhibition of growth at 10 µM (IGROV-1) [%] | inhibition of growth at 10 µM (ACHN) [%] | inhibition of growth at 10 µM (NCI-H322M) [%] | inhibition of growth at 10 µM (MOLT-4) [%] | inhibition of growth at 10 µM (OVCAR-3) [%] | inhibition of growth at 10 µM (NCI-H522) [%] | inhibition of growth at 10 µM (MDA-MB-231) [%] | inhibition of growth at 10 µM (DU-145) [%] | inhibition of growth at 10 µM (HL-60(TB)) [%]
1 | CCOc1ccc(NC(=O)CSc2nc3ccccc3c(=O)n2CCc2ccccc2)cc1 | < 10 | < 10 | 12 | < 10 | < 10 | 31 | < 10 | < 10 | 21 | 12 | 23 | 10 | < 10 | 11 | 25 | < 10 | 
2 | O=C(CSc1nc2ccccc2c(=O)n1CCc1ccccc1)Nc1ccc(Cl)cc1 | 10 |  | 42 | 45 | 34 | 24 | 21 | 13 | 36 | 22 | 13 |  | 32 | 45 | 37 | 12 | 
3 | O=C(CSc1nc2ccccc2c(=O)n1CCc1ccccc1)Nc1ccccc1 | < 10 | < 10 | < 10 | < 10 | 16 | < 10 | 11 | < 10 | < 10 | < 10 | < 10 | < 10 | < 10 | 10 | 35 | < 10 | 17
4 | COc1ccc(NC(=O)CSc2nc3ccccc3c(=O)n2CCc2ccccc2)cc1 | 11 | 10 | 13 | 49 | 13 | < 10 | < 10 | < 10 | 18 | < 10 | 19 |  | 10 | < 10 | 39 | < 10 | 
5 | O=C(CSc1nc2ccccc2c(=O)n1CCc1ccccc1)Nc1cc(Cl)ccc1C(=O)O | < 10 | 10 | 17 | < 10 | < 10 | < 10 | < 10 | < 10 | < 10 | < 10 | < 10 |  | < 10 | < 10 | < 10 | < 10 | 
6 | COc1cc(NC(=O)CCSc2nc3ccccc3c(=O)n2CCc2ccccc2)cc(OC)c1OC | 42 | 13 | 74 | 67 | 30 | 10 | 28 | 16 | 21 | 21 | 28 | 40 | 11 | 52 | 66 | < 10 | 27
7 | O=C(CSc1nc2ccccc2c(=O)n1CCc1ccccc1)Oc1ccc(Cl)cc1 | < 10 | 15 | 27 | 41 | 11 | 13 | 25 | < 10 | 15 | < 10 | < 10 |  | < 10 | 37 | 33 | < 10 | 
8 | CC(=O)c1ccc(NC(=O)CSc2nc3ccccc3c(=O)n2CCc2ccccc2)cc1 | 23 | < 10 | 16 | 33 | 28 | 16 | 12 | 13 | 20 | 30 | 27 |  | 23 | 51 | 39 | 11 | 
9 | CCOC(=O)c1ccc(NC(=O)CSc2nc3ccccc3c(=O)n2CCc2ccccc2)cc1 | 14 | 12 | 19 | 33 | 29 | 25 | 13 | < 10 | 31 | 21 | 23 |  | 13 | 26 | 48 | 10 | 
10 | COc1cc(OC(=O)CSc2nc3ccccc3c(=O)n2CCc2ccccc2)cc(OC)c1OC | < 10 | 10 | 28 | < 10 | 23 | 16 | < 10 | 10 | 11 | 10 | 11 |  | < 10 | < 10 | 20 | < 10 | 
11 | O=C(CSc1nc2ccccc2c(=O)n1CCc1ccccc1)Nc1ccccc1C(=O)O | 17 | 10 | < 10 | 45 | 21 | 26 | 26 | < 10 | 42 | 34 | 19 |  | 29 | 85 | 45 | 30 | 
12 | O=C(CSc1nc2ccccc2c(=O)n1CCc1ccccc1)Oc1ccccc1 | < 10 | < 10 | < 10 | < 10 | 19 |  | 14 | 16 | 10 | 10 | 25 | 23 | < 10 | 37 | 15 |  | 11
13 | O=C(CSc1nc2ccccc2c(=O)n1CCc1ccccc1)NCc1ccccc1 | 12 | < 10 | 32 | 37 | 29 | 13 | 10 | 20 | 39 | 38 | 26 |  | 10 | 28 | 37 | 13 | 
